Where a name gives a salt, the structure may show the parent alone. Read-outs that look alike come from different tables or passages of the source.
System: NLRP3 inflammasome
Assay: IL-1β secretion assay (LPS-primed, nigericin-activated THP-1 cells, MSD readout)
Assay type: cell-based
Settings: read-out: IL1b IC50
Method: Monocytic THP-1 cells (DSMZ) were maintained in RPMI media (RPMI 1640 Medium (1×) +10% FBS, Eurobio CVFSVFOO—OU). Cells were then plated at 16,000 cells per well in 96-well round bottom cell culture plates (TPP, ref 92097) and maintained with RPMI and 0.1% Bovine Serum Albumin solution. Activation of the NLRP3 inflammasome requires both an NF-kB-dependent priming step and the addition of a NLRP3 activator. The priming step was induced by LPS (10 ng/mL, Sigma, ref:L4391) for 3 h at 37° C., then compound, in a 1:3.10 serial dilution series in DMSO 1:100, and the activator nigericin (Sigma Aldrich, ref: SML1779) 10 μM (final concentration) were added to the cells and co-incubated for 2 h. 50 μL supernatant was removed, and IL-1β levels were monitored using an MSD assay (Electro Chemical Luminescence Immunoassay (ECLI) according to manufacturers' instructions.
IC50 values were calculated from the plot of percentage of inhibition versus the inhibitor concentration by a logistics fit according to: y=A2+(A1−A2)/(1+(x/IC50)^p) where y is the %-inhibition at the inhibitor concentration, x. A1 is the lowest inhibition value, i.e., 0%, and A2 the maximum inhibition value, i.e., 100%. The exponent, p, is the Hill coefficient. The curve fitting was conducted with an internally developed software.

[1] = Homo sapiens, THP-1, LPS-primed

SMILES | IC50 [1] [nM] | other results
CC(C)c1nn(CC(=O)NC2CN3CCC2CC3)c(=O)c2cc3ccsc3n12 (centres unmarked) [Example 39, 2-(8-isopropyl-5-oxothieno[3′,2′:4,5]pyrrolo[1,2-d][1,2,4]triazin-6(5H)-yl)-N-(quinuclidin-3-yl)acetamide] |  | IC50 (Homo sapiens, LPS-primed): 2230 nM
CC(C)c1nn(CC(=O)N[C@@H]2CCCN(C3COC3)C2)c(=O)c2cc3ccsc3n12 [Example 40, (R)-2-(8-isopropyl-5-oxothieno[3′,2′:4,5]pyrrolo[1,2-d][1,2,4]triazin-6(5H)-yl)-N-(1-(oxetan-3-yl)piperidin-3-yl)acetamide] | 259 | 
CC(C)c1nn(CC(=O)N[C@@H]2CCCN(C(C)C)C2)c(=O)c2cc3ccsc3n12 [Example 48, 2-(12-isopropyl-9-oxo-3-thia-1,10,11-triazatricyclo[6.4.0.02,6]dodeca-2(6),4,7,11-tetraen-10-yl)-N-[(3R)-1-isopropyl-3-piperidyl]acetamide] | 58.9 | 
CC(C)c1nn(CC(=O)Nc2ccn(C)n2)c(=O)c2cc3ccsc3n12 [Example 54, 2-(12-isopropyl-9-oxo-3-thia-1,10,11-triazatricyclo[6.4.0.02,6]dodeca-2(6),4,7,11-tetraen-10-yl)-N-(1-methylpyrazol-3-yl)acetamide] | 1710 | 
CC(C)c1nn(CC(=O)N[C@@H]2CCN(C)C2)c(=O)c2cc3ccsc3n12 [Example 76, N-[(3R)-1-methylpyrrolidin-3-yl]-2-(8-isopropyl-5-oxothieno[3′,2′:4,5]pyrrolo[1,2-d][1,2,4]triazin-6(5H)-yl)acetamide] | 978 | 
Cc1cc2cc3c(=O)n(CC(=O)N[C@@H]4CCCN(C)C4)nc(C(C)C)n3c2s1 [Example 9, (R)-2-(8-isopropyl-2-methyl-5-oxothieno[3′,2′:4,5]pyrrolo[1,2-d][1,2,4]triazin-6(5H)-yl)-N-(1-methylpiperidin-3-yl)acetamide 2,2,2-trifluoroacetate] | 9560 | 
CC(C)c1nn(CC(=O)Nc2ccncn2)c(=O)c2cc3ccsc3n12 [Example 66, 2-(12-isopropyl-9-oxo-3-thia-1,10,11-triazatricyclo[6.4.0.02,6]dodeca-2(6),4,7,11-tetraen-10-yl)-N-pyrimidin-4-yl-acetamide] | 2070 | 
CC(C)c1nn(CC(=O)NC2C[C@@H]3CN[C@H]2C3)c(=O)c2cc3ccsc3n12 (stereo partly drawn) [Example 88, N-[(1S,4R)-2-azabicyclo[2.2.1]heptan-6-yl]-2-(12-isopropyl-9-oxo-3-thia-1,10,11-triazatricyclo[6.4.0.02,6]dodeca-2(6),4,7,11-tetraen-10-yl)acetamidehydrochloride] | > 10000 | 
CCc1nn(CC(=O)N[C@@H]2CCCN(C3CC3)C2)c(=O)c2cc3ccsc3n12 [Example 60, N-[(3R)-1-cyclopropyl-3-piperidyl]-2-(12-ethyl-9-oxo-3-thia-1,10,11-triazatricyclo [6.4.0.02,6]dodeca-2(6),4,7,11-tetraen-10-yl)acetamide] | 130 | 
CC(C)c1nn(CC(=O)Nc2ccnn2C)c(=O)c2cc3ccsc3n12 [Example 53, 2-(12-isopropyl-9-oxo-3-thia-1,10,11-triazatricyclo[6.4.0.02,6]dodeca-2(6),4,7,11-tetraen-10-yl)-N-(2-methylpyrazol-3-yl)acetamide] | 1070 | 
CC(C)c1nn(CC(=O)NC2CCN(C(C)(C)C)C2)c(=O)c2cc3ccsc3n12 (racemic) [Example 87, 2-(12-isopropyl-9-oxo-3-thia-1,10,11-triazatricyclo[6.4.0.02,6]dodeca-2(6),4,7,11-tetraen-10-yl)-N-[rac-(3R)-1-tert-butylpyrrolidin-3-yl]acetamide] | > 10000 | 
CC(C)c1nn(CC(=O)N[C@@H]2CCCN(C[C@@H](C)O)C2)c(=O)c2cc3ccsc3n12 [Example 78, N-[(3R)-1-[(2R)-2-hydroxypropyl]piperidin-3-yl]-2-(8-isopropyl-5-oxothieno[3′,2′:4,5]pyrrolo [1,2-d][1,2,4]triazin-6(5H)-yl)acetamide] | 326 | 
CC(C)c1nn(CC(=O)NC2CCC(=O)N(C)C2)c(=O)c2cc3ccsc3n12 (centres unmarked) [Example 47, 2-(8-isopropyl-5-oxothieno[3′,2′:4,5]pyrrolo[1,2-d][1,2,4]triazin-6(5H)-yl)-N-(1-methyl-6-oxopiperidin-3-yl)acetamide] | 1030 | 
CC(C)c1nn(CC(=O)N[C@@H]2CCCN(CC#N)C2)c(=O)c2cc3ccsc3n12 [Example 75, N-[(3R)-1-(cyanomethyl)piperidin-3-yl]-2-(8-isopropyl-5-oxothieno[3′,2′:4,5]pyrrolo[1,2-d][1,2,4]triazin-6(5H)-yl)acetamide] | 157 | 
CC(C)c1nn(CC(=O)NC2CCCN(C(C)(C)C)C2)c(=O)c2cc3ccsc3n12 (centres unmarked) [Example 37, N-(1-(tert-butyl)piperidin-3-yl)-2-(8-isopropyl-5-oxothieno[3′,2′:4,5]pyrrolo[1,2-d][1,2,4]triazin-6(5H)-yl)acetamide formate] | 45 | 
CC(C)c1nn(CC(=O)NC2C[C@@H]3C[C@H]2N(C)C3)c(=O)c2cc3ccsc3n12 (stereo in doubt) [Example 82, N-[(1R,4R)-2-methyl-2-azabicyclo[2.2.1]heptan-6-yl]-2-(8-isopropyl-5-oxothieno [3′,2′:4,5]pyrrolo[1,2-d][1,2,4]triazin-6(5H)-yl)acetamide] | 4500 | 
CC(C)c1nn(CC(=O)Nc2ccccn2)c(=O)c2cc3ccsc3n12 [Example 58, 2-(12-isopropyl-9-oxo-3-thia-1,10,11-triazatricyclo[6.4.0.02,6]dodeca-2(6),4,7,11-tetraen-10-yl)-N-(2-pyridyl)acetamide] | 657 | 
CC(C)c1nn(CC(=O)N[C@@H]2CCCN(C3CCCC3)C2)c(=O)c2cc3ccsc3n12 [Example 49, N-[(3R)-1-cyclopentyl-3-piperidyl]-2-(12-isopropyl-9-oxo-3-thia-1,10,11-triazatricyclo [6.4.0.02,6]dodeca-2(6),4,7,11-tetraen-10-yl)acetamide] | 27 | 
CC(C)c1nn(CC(=O)N[C@@H]2CCCN(c3nccn3C)C2)c(=O)c2cc3ccsc3n12 [Example 45, (R)-2-(8-isopropyl-5-oxothieno[3′,2′:4,5]pyrrolo[1,2-d][1,2,4]triazin-6(5H)-yl)-N-(1-(1-methyl-1H-imidazol-2-yl)piperidin-3-yl)acetamide] | 1530 | 
COc1cc(NC(=O)Cn2nc(C(C)C)n3c(cc4ccsc43)c2=O)ccn1 [Example 65, 2-(8-isopropyl-5-oxothieno[3′,2′:4,5]pyrrolo[1,2-d][1,2,4]triazin-6(5H)-yl)-N-(2-methoxypyridin-4-yl)acetamide] | 3800 | 
COCc1nn(CC(=O)N[C@@H]2CCCN(C3CCC3)C2)c(=O)c2cc3ccsc3n12 [Example 32, (R)—N-(1-cyclobutylpiperidin-3-yl)-2-(8-(methoxymethyl)-5-oxothieno [3′,2′:4,5]pyrrolo[1,2-d][1,2,4]triazin-6(5H)-yl)acetamide] | 3060 | 
CC(C)c1nn(CC(=O)Nc2ccncc2)c(=O)c2cc3ccsc3n12 [Example 67, 2-(12-isopropyl-9-oxo-3-thia-1,10,11-triazatricyclo[6.4.0.02,6]dodeca-2(6),4,7,11-tetraen-10-yl)-N-(4-pyridyl)acetamide] | 446 | 
CC(O)c1nn(CC(=O)N[C@@H]2CCCN(C3CCC3)C2)c(=O)c2cc3ccsc3n12 (single isomer, unassigned) [Example 50] |  | IC50 (LPS-primed): 650 nM
